In patent US5374641A, “N-(3-pyridylalkyl)sulfonamide compounds which have useful pharmaceutical activity” (Terumo Kabushiki Kaisha, priority 1991, dated 1994):

Key:
[1] = system: platelet aggregation caused by U-46619; assay: Test Example 1: Platelet aggregation inhibiting activity (human PRP, U-46619); assay type: cell-based; settings: for IC50: Platelet, 320 nM U-46619, 37° C., read-out: Inhibitory effect against platelet aggregation caused by U-46619 (IC50); for platelet aggregation inhibiting activity (in words): U-46619
Experimental: (§1) A blood sample was collected from human fore arm using a syringe containing 3.8% sodium citrate solution (1/10 volume of the blood to be collected) and centrifuged to obtain platelet rich plasma (PRP; 3 ×10^5 platelets/μ1).
(§2) Platelet aggregation was measured using an aggregometer (Hematracer VI, Niko Bioscience Co., Ltd.) by putting 200 µl of the thus prepared PRP and 23.75 µl of physiological saline in a cuvette, setting the cuvette into the aggregometer and incubating the contents at 37° C. for 2 minutes, adding 1.25 μ1 dimethyl sulfoxide (DMSO) solution of each of the N-(3-pyridylalkyl)sulfonamide derivatives obtained in Examples 1, 3, 4, 6 and 8 and incubating for 3 minutes, and then adding U-46619 (Cayman Chemical Co., Inc.) which is a stable PGG2/ H2 derivative having a strong platelet aggregation causing activity.
In this instance, the term "IC50 "as used herein means concentration of the N-(3-pyridylalkyl)sulfonamide derivative of the present invention required to inhibit 50% of the platelet agglutination when platelet aggregation without introducing the inventive derivative was defined as 100%.

[2] = system: tracheal smooth muscle contraction caused by the U-46619; assay: Test Example 3: Competitive activity against TXA2.PGH2 (tracheal smooth muscle contraction caused by U-46619); assay type: cell-based, Hartley guinea pig; settings: guinea pig trachea
Experimental: In vitro competitive activity (IC50) of the derivative of the present invention against TXA2· PGH2 was measured as follows.
(§3) Sections of tracheae excised from Hartley guinea pig males of 300 to 500 g in weight were suspended with a load of 0.3 g in Tyrode solution (30° C.) contained in a Magnus vessel which was aerated with a mixed gas system of 95% oxygen and 5% carbon dioxide. After about 1 hour of stabilization, U-46619 (a TXA2· PGH2 analog, manufactured by Cayman Chemical Co., Inc.) was added to the solution in a concentration of 10^-7 M. Thereafter, effect of the addition of the inventive N-(3-pyridylalkyl)sulfonamide derivative obtained in Example 4 on the tracheal smooth muscle contraction caused by the U-46619 was measured and the IC50 value was calculated.

thromboxane synthetase [3] = molecular target: T1, thromboxane synthetase (Homo sapiens, UniProt P24557); assay: Test Example 2: Thromboxane synthetase inhibiting activity (human PRP, thrombin, RIA); assay type: cell-based; settings: 20 U/ml thrombin, RIA, read-out: Inhibition of thromboxane A2 synthesis (IC50)
T1 sequence (P24557 1-533): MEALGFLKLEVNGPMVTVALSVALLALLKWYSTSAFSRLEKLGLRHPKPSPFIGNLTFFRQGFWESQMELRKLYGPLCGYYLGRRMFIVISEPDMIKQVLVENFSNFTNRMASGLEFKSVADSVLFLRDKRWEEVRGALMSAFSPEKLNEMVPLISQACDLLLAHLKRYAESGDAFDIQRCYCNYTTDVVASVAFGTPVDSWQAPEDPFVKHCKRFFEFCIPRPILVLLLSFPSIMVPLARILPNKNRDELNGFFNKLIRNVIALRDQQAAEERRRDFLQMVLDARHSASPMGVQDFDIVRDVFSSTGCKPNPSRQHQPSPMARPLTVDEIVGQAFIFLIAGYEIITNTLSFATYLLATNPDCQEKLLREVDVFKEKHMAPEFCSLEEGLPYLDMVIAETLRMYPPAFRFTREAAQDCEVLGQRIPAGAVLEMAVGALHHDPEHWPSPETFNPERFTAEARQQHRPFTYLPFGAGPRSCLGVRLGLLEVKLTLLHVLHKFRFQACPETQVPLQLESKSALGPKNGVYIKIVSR
Experimental: as §1
(§4) A 200 μ1 portion of the thus prepared PRP and 23.75 µl of physiological saline were put in a cuvette, the cuvette was set into the aforementioned aggregometer and the contents in the cuvette were incubated at 37° C. for 2 minutes. Thereafter, 1.25 μ1 dimethyl sulfoxide (DMSO) solution of each of the N-(3-pyridylalkyl)sulfonamide derivatives obtained in Examples 1, 3 and 7 was put in the cuvette and incubated for 3 minutes, followed by the addition of 20 U/ml solution of thrombin to cause platelet aggregation. A portion of the supernatant after aggregation reaction was mixed with diethyl ether/methanol/0.2M citric acid (30:4:1 ), and the thus formed thromboxane A2 was extracted and its quantity was analyzed by RIA using a kit of Amersham.

[4] = system: platelet aggregation caused by U-46619; assay: Test Examples 6: Platelet aggregation inhibiting activity (human PRP, U-46619); assay type: cell-based
Experimental: A blood sample was collected from human fore arm using a syringe containing 3.8% sodium citrate solution (1/10 volume of the blood to be collected) and centrifuged to obtain platelet rich plasma (PRP; 3×10^5 platelets/μl).
as §2, with “200 μof” for “200 µl of”, “23.75 μl” for “23.75 µl”, “1.25 μl” for “1.25 μ1”, “Examples 35, 36, 37” for “Examples 1, 3, 4, 6”, “and 42” for “and 8”, “stable PGG2 /H2” for “stable PGG2/ H2”
In this instance, the term "IC50 " as used herein means concentration of the N-(3-pyridylalkyl)sulfonamide derivative of the present invention required to inhibit 50% of the platelet aggregation when platelet aggregation without introducing the inventive derivative was defined as 100%.

thromboxane synthetase [5] = molecular target: T1, thromboxane synthetase; assay: Test Example 7: Thromboxane synthetase inhibiting activity (human PRP, thrombin, RIA); assay type: cell-based
Experimental: A blood sample was collected from human fore arm using a syringe containing 3.8% sodium citrate solution (1/10 volume of the blood to be collected) and centrifuged to obtain platelet rich plasma (PRP; 3×10^5 platelets/μl ).
as §4, with “200 μl” for “200 μ1”, “23.75 μl” for “23.75 µl”, “Examples 36, 37, 38” for “Examples 1, 3”, “and 40” for “and 7”, “acid (30:4:1),” for “acid (30:4:1 ),”

[6] = system: tracheal smooth muscle contraction caused by the U-46619; assay: Test Examples 8: Competitive activity against TXA2.PGH2 (tracheal smooth muscle contraction caused by U-46619); assay type: cell-based, Hartley guinea pig; settings: guinea pig trachea
Experimental: In vitro competitive activity (IC50) of the derivative of the present invention against TXA2 ·PGH2 was measured as follows.
as §3, with “TXA2 ·PGH2” for “TXA2· PGH2”, “Inc. )” for “Inc.)”

[7] = Cavia porcellus, U-46619 10^-7 M, in vitro

Row | Compound | IC50 [1] [µM] | platelet aggregation inhibiting activity (in words) [1] | in vitro competitive activity against TXA2.PGH2 (in words) ([2]; U-46619) | IC50 (thromboxane synthetase [3]) [µM] | IC50 ([4]; Platelet, 320 nM U-46619, 37° C., read-out: Inhibitory effect against platelet aggregation caused by U-46619 (IC50)) [µM] | platelet aggregation inhibiting activity (in words) ([4]; U-46619) | IC50 (thromboxane synthetase [5]; 20 U/ml thrombin, RIA, read-out: Inhibition of thromboxane A2 synthesis (IC50)) [µM] | thromboxane synthetase inhibiting activity (in words) (thromboxane synthetase [5]; thrombin) | IC50 [6, 7] [µM] | in vitro competitive activity against TXA2.PGH2 (in words) ([6]; U-46619) | IC50 [2, 7] [µM]
1 | CCOC(=O)COc1ccc(C(CNS(=O)(=O)c2ccc(Cl)cc2)c2cccnc2)cc1 (stereo not shown) [Example 4, ethyl 4-[2-(4-chlorobenzenesulfonamido)-1-(3-pyridyl)ethyl]phenyloxyacetate] | 51 | markedly high platelet aggregation inhibiting activity | excellent in vitro competitive activity | 0.033 | – | – | – | – | – | – | –
2 | CCOC(=O)/C(C)=C/c1ccc(C(CNS(=O)(=O)c2ccc(Cl)cc2)Cc2cccnc2)cc1 (stereo not drawn) [Example 37, ethyl 4-[1-(4-chlorobenzenesulfonamido)-3-(3-pyridyl)-2-propyl]-α-methylcinnamate] | – | – | – | – | 66 | markedly high platelet aggregation inhibiting activity | 8.9 | excellent thromboxane synthetase inhibiting activity | 0.088 | excellent in vitro competitive | –
3 | O=C(O)COc1ccc(C(CNS(=O)(=O)c2ccc(Cl)cc2)c2cccnc2)cc1 (stereo not shown) [Example 5, 4-[2-(4-chlorobenzenesulfonamido)-1-(3-pyridyl)ethyl]phenyloxyacetic acid] | 16 | markedly high platelet aggregation inhibiting activity | – | – | – | – | – | – | – | – | 6.7
